Like-named read-outs stand apart in the source and are kept apart here.
Columns and labels:
[1] = tested on: mammary fat pads of aged female rats; assay: In vivo adipogenesis in mammary fat pads of aged female rats (microCT); parameters: species or system rat; conditions: eight-month-old female rats, 100 μg peptide in 100 μl collagen gel, 7 days, versus collagen only
Procedure: Peptides were also tested for their ability to stimulate adipogenesis in mammary fat pads of aged (8 month old) female rats in vivo. Mammary fat pads are rich in adipocyte progenitor cells.
Eight-month-old female Sprague Dawley rats (retired breeders) were injected with 100 μl collagen gel (Vitrogen) containing 100 μg peptide into the fourth right mammary fat pad, as depicted in FIG. 10. […] The collagen and peptides were injected at the top of the ROI nearest the nipple. The collagen and peptide diffuse into the fat pad following injection and active peptides target RHAMM-positive progenitor cells present in the fat pad. Collagen alone was injected into the fourth left mammary fat pad as a negative control.
Following injection of the collagen and peptide or collagen alone, animals were maintained on rat chow and water for 7 days and then euthanized. Micro-computed tomography (microCT) imaging of the […] was performed on animals using a Locus Ultra scanner (GE Healthcare, London, ON, Canada). The animals were imaged ex vivo with an X-ray tube voltage of 80 kV and a tube current of 55 mA. Nine hundred projections of data were acquired at an angular increment of 0.4 degrees around the rat in an exposure time of 16 ms. The data were then reconstructed into a 3D volume image with a voxel size of 154 μm. The subcutaneous mammary fat measured in 10×5×3 mm rectangular area (the region of interest (ROI)) below the nipple, avoiding measurement of underlying visceral fat (see the region labeled “fat pad” in FIG. 11). The amount of fat in the ROI was calculated as mass (mg) per ROI.

adipogenesis [2] = assay: Adipogenic activity of peptides and peptide fragments, assay not specified; format: cell-based
Procedure: In the second approach, a series of truncations and alanine mutagenesis on peptide B were performed in order to identify the smallest active sequence. Fragments of peptide B were prepared and assayed for adipogenesis. First, fragments corresponding to the two halves of peptide B were prepared (KLKDENS (SEQ ID NO: 8) and SQLKSEVSK (SEQ ID NO: 13)).

pre-adipocyte stem cells = assay: Adipogenic effects in pre-adipocyte stem cells in culture; format: cell-based
dermis of aged rats = assay: Rat dermal skin model of adipogenesis (injection into the dermis of aged rats); format: in vivo; conditions: for adipogenic effects in rat skin: injected into the dermis of aged rats / rat skin
nude guinea pig = assay: Nude guinea pig model of adipogenesis; conditions: in vivo
[3] = tested on: bone marrow mesenchymal stem cells; assay: Adipogenesis in mesenchymal stem cells or papillary fibroblasts, replacement of insulin; format: cell-based; conditions: depending upon the screening assay used
Procedure: For example, in bone marrow mesenchymal stem cells, a maximum adipogenic effect was obtained at 1-5 μg of peptide B (SEQ ID NO: 2), depending upon the screening assay used.

adipogenesis [4] = conditions: earlier reports, WO 2014/082042 and background; cited from earlier work
adipogenesis in vivo = assay: Adipogenesis in vivo, model not specified
[5] = Hyaluronan binding (random phage library screen); conditions: unbiased screen of 15-mer random phage libraries
Procedure: Two approaches were used to identify additional adipogenic peptides and to identify the key adipogenic sequences. […] Thus, in the first approach, an unbiased screen was performed to identify hyaluronan-binding peptides using 15-mer random phage libraries. Peptide sequences identified in this screen were sorted for: (a) their alignment to the HA binding region of RHAMM, and (b) their lack of alignment to the HA binding region of CD44.

[6] = earlier reports, background and U.S. Pat. No. 6,271,344; cited from earlier work

## KLKDENSQLKSEVSK (listed as Homo sapiens) [peptide B]
[1]
  adipogenesis in vivo in mammary fat pads: mammary fat pad enlargement
Adipogenesis [2]; assay not specified
  adipogenic activity: adipogenic activity
pre-adipocyte stem cells
  adipogenic effects in pre-adipocyte stem cells in culture: adipogenic effects
Dermis of aged rats; 25-50 μg of peptide per injection site, rat dermal skin model
  fat accumulation: induced significant fat accumulation
Dermis of aged rats
  adipogenic effects in rat skin: adipogenic effects
Nude guinea pig
  promoting adipogenesis in a nude guinea pig model: effective in promoting adipogenesis
[3]
  amount of peptide giving a maximum adipogenic effect: 1 to 5 µg
Adipogenesis [4]
  adipogenic activity: strongly adipogenic

## STMMSRSHKTRSHHV [peptide P15-1]
Adipogenesis [2]; tissue culture
  adipogenesis in tissue culture: promotes adipogenesis
pre-adipocyte stem cells
  adipogenic effects in pre-adipocyte stem cells in culture: adipogenic effects
Dermis of aged rats
  adipogenic effects in rat skin: adipogenic effects
Adipogenesis in vivo
  adipogenesis in vivo: promotes adipogenesis
[5]
  binding to hyaluronan (HA): hyaluronan binding peptide
Adipogenesis [4]
  adipogenic activity: is adipogenic
[6]
  binding to hyaluronan (HA): bind to hyaluronan
